Experimental data from patent US10793535B2, “Heterocyclic glutaminase inhibitors” (Calithera Biosciences, Inc., priority 2012, dated 2020).

How the values were obtained:
P493-6 (myc "on") cells = experiment: Cell proliferation assay; format: cell-based; settings: read-out: Cell prolif P493 72 h IC50; 72 h
Protocol: P493-6 (myc “on”) cells were maintained in growth media (RPMI-1640, 10% FBS, 2 mM glutamine, 100 units/ml Penicillin and 100 μg/ml streptomycin) at 37° C. with 5% CO2. For compound assay, P493-6 cells were plated in 96-well V-bottom plates on the day of compound addition in 50 μl of growth media at a cell density of 200,000 cells/ml (10,000 cells/well). Compounds were serially diluted in 100% DMSO at 200-times the final concentration. Compounds were diluted 100-fold into growth media and then 50 μl of this mixture was added to cell plates making the final concentration of DMSO 0.5%. Cells were incubated with compound for 72 hrs at 37° C. with 5% CO2 and analyzed for antiproliferative effects either by Cell Titer Glo (Promega) or FACS analysis using the Viacount (Millipore) kit on the Guava instrument.

Caco-2 cell monolayers = experiment: Caco-2 permeability assay; format: in vitro ADME, human
Source text: Caco-2 cells are commonly used in a confluent monolayer on a cell culture insert filter. When cultured in this format and under specific conditions, the cells become differentiated and polarized such that their phenotype, morphologically and functionally resembles the enterocytes lining the small intestine. The cell monolayer provides a physical and biochemical barrier to the passage of small molecules, and is widely used across the pharmaceutical industry as an in vitro model of the human small intestinal mucosa to predict the absorption of orally administered drugs (Hidalgo et al., Gastroenterology, 1989; Artursson, J. Pharm. Sci., 1990). The correlation between the in vitro apparent permeability (P ? app) across Caco-2 monolayers and the in vivo absorption is well established (Artursson et al., Biochem. Biophys. Res. Comm., 1991).
The present assay was used to determine the bidirectional permeability of the compounds of the invention through Caco-2 cell monolayers. Caco-2 cells were grown in confluent monolayers where the media of both the apical (A) and basolateral (B) sides were at pH 7.4. Compounds were dosed at 1 μM in the presence of 200 μM Lucifer Yellow, on the apical side (A→B) or the basolateral side (B→A) for assessment, in duplicate.
The absorption potential of compounds were classified as either Low (P-app<1×10^−6 cm/s) or High (P-app>1×10^−6 cm/s).

[1] = Pharmacokinetic studies in mice; format: in vivo; settings: female, CD-1, mouse, plasma, po, 25% HPBCD/10 mM Citrate pH 2.2, Solution
Protocol: For PK studies performed in mice, female CD-1 mice, age 5-8 weeks, were dosed orally by gavage (10 mL/kg volume) with test compounds. At pre-determined time-points (e.g. 1, 3, and 6 hrs) post-dosing, groups of three mice were sacrificed by CO2 inhalation and blood collected via cardiac puncture. Blood samples were placed into K2 EDTA coated tubes and kept on ice. Samples were centrifuged at 2000×g for 10 minutes at 4° C. and plasma isolated. Plasma was stored at ˜70° C. until bioanalytical analysis.
(§1) The plasma samples were analyzed using Liquid chromatography tandem mass spectrometry (LC/MS/MS) methods. Frozen plasma samples were thawed on ice or room temperature. Aliquotes of study plasma samples and calibration samples prepared in the same matrix as the study samples were quenched in an organic solvent (methanol, acetonitrole or DMF) containing an internal standard. The mixtures were then centrifuged and filtered and the filtrates were injected to an LC/MS/MS system to determine concentrations of test compounds.

[2] = Pharmacokinetic studies in rats; format: in vivo; settings: female, Sprague-Dawley, plasma, Rat
Protocol: For PK studies performed in rats, groups of three female Sprague-Dawley Rats, age 7-10 weeks, with jugular vein cannulae were dosed orally by gavage (5-10 mL/kg) with test compounds. Serial blood samples were collected via the jugular vein cannulae at multiple time-points pre and post-dose. Blood samples were placed into K2 EDTA coated tubes on kept on ice. Samples were centrifuged at 2500×g for 10 minutes at 4° C. and plasma isolated. Plasma was stored at ˜70° C. until bioanalytical analysis.
as §1

[3] = system: H2122 lung adenocarcinoma xenograft; experiment: Lung adenocarcinoma xenograft efficacy study; format: in vivo, mouse; settings: 200 mg/kg orally BID for 23 days
Protocol: Female scid/beige mice (n=20) age 6-8 weeks were implanted subcutaneously with 1×10^7 H2122 lung adenocarcinoma cells per mouse suspended in PBS. […] For both groups, dosing was initiated 24 hours post-implant and continued orally BID for 23 days. Tumors were measured with calipers three times per week and tumor volume calculated using the formula tumor volume (mm^3)=(a×b^2/2) where ‘b’ is the smallest diameter and ‘a’ is the largest perpendicular diameter. **P-value <0.01 (Two-sided T-test).

[4] = system: RPMI-8226 multiple myeloma xenograft; experiment: Multiple myeloma xenograft study; format: in vivo, mouse; settings: RPMI-8226 xenograft, 200 mg/kg orally BID for 28 days
Protocol: Female CB.17 SCID mice (n=20) age 8-12 weeks were implanted subcutaneously with 1×10^7 RPMI-8226 myeloma cells per mouse mixed 1:1 with Matrigel. […] For both groups, dosing was initiated when tumors reached a volume of 100-150 mm^3 and continued orally BID for 28 days. Tumors were measured with calipers two times per week and tumor volume calculated using the formula tumor volume (mm^3)=(a×b^2/2) where ‘b’ is the smallest diameter and ‘a’ is the largest perpendicular diameter. **P-value <0.01 (Two-sided T-test).

[5] = system: multiple myeloma cells (MM1S cells, RPMI-8226 cells); experiment: Treatment of multiple myeloma cells with a combination of drugs; format: cell-based; settings: 72 hours, Cell Titer Glo, combination indices (Calcusyn)
Protocol: At the end of the incubation, cell viability was measured using Cell Titer Glo as per manufacturer's protocol (Promega, Madison, Wis.). Measured values for compound-treated cells were normalized to DMSO-treated cells and data is reported as a cell survival ratio with a value of 1 (one) corresponding to maximum cell survival and a value of 0 (zero) corresponding to no cell survival. Cell survival ratios for all compound treatments are represented as bar graphs. Combination indices were calculated using the Calcusyn program (biosoft.com) and reported for individual mixtures of compound 670 and pomalidomide [POM] (panels A &C) and individual mixtures of compound 670 and dexamethasone [DEX] (panels B & D). Compound mixtures that produced a synergistic anti-tumor activity are highlighted.

[6] = 25 mg/kg oral, 20% HPBCD/10 mM Citrate pH 2.0, Solution
[7] = 80 mg/kg oral, 65% HPBCD/10 mM Citrate pH 2.6, Solution
[8] = 250 mg/kg oral, 40% HPBCD/10 mM Citrate pH 2.2, Solution
[9] = 500 mg/kg oral, 40% HPBCD/10 mM Citrate pH 2.2, Solution

What does the source list for O=C(Cc1cccc(OC(F)(F)F)c1)Nc1ccc(CCCCc2nnc(NC(=O)Cc3ccccn3)s2)nn1 [Compound 670]?
IC50 (P493-6 (myc "on") cells): 30 nM; Significant Efflux (Caco-2 cell monolayers): Yes (efflux ratios being significant when greater than or equal to 3 when the Papp (B→A) was greater than or equal to 1×10^−6 cm/s); Cmax ([1]; 100 mg/kg, 100 mg/kg oral): 5.75 µM; Tmax ([1]; 100 mg/kg, 100 mg/kg oral): 1 h; Cmax ([1]; 200 mg/kg, 200 mg/kg oral): 5.05 µM; Tmax ([1]; 200 mg/kg, 200 mg/kg oral): 1 h; Cmax [2, 6]: 4.4 µM; Tmax [2, 6]: 1 h; Cmax [2, 7]: 12.5 µM; Tmax [2, 7]: 1 h; Cmax [2, 8]: 9.9 µM; Tmax [2, 8]: 24 h; Cmax [2, 9]: 15.3 µM; Tmax [2, 9]: 2 h; tumor size [3]: reduced tumor size; tumor size [4]: reduced tumor size; anti-tumor effect in combination with dexamethasone [5]: synergizes; anti-tumor effect in combination with pomalidomide [5]: synergizes
